From patent US7157491B2, “Aryl-carbaldehyde oxime derivatives and their use as estrogenic agents” (Wyeth, priority 2003, dated 2007)

Legend:
human ERβ = biological target: T1, human ERβ (Homo sapiens, UniProt Q92731); assay: Competition with [3H]-17β-estradiol for binding to ERβ ligand binding domain (E. coli lysate); conditions: 2 nM [3H]-17β-estradiol, 5-15 hours at room temperature; concentration that decreases total 17β-estradiol binding by 50%
T1 construct: made in house; host or cells: E. coli
T1 sequence (Q92731 264-498 limits assumed): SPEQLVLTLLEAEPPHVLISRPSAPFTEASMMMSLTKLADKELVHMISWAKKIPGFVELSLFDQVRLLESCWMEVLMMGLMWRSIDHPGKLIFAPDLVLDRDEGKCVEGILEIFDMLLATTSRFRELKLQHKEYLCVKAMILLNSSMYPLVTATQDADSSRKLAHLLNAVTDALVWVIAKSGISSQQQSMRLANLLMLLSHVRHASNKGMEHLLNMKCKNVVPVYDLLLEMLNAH
Method: (§1) Representative examples of the invention were evaluated for their ability to compete with 17β-estradiol for both ERα and ERβ. This test procedure provides the methodology for one to determine whether a particular compound binds to the estrogen receptor (and is therefore “estrogenic”) and whether there is selectivity for ERα or ERβ. […] 17β-estradiol is included as a standard reference for comparison. The procedure used is briefly described below. A crude lysate of E. coli expressing the estrogen receptor ligand binding domains (D, E, & F) of human ERα or ERβ was prepared. Both receptors and compounds were diluted in 1× Dulbecco's PBS (DPBS) supplemented with 1 mM EDTA. Using a high binding masked microtiter plate, 100 uL of receptor (1 uG/well) was combined with 2 nM [^3H]-17β-estradiol and various concentrations of compound. After between 5 and 15 hours at room temperature, the plates were washed with DPBS/1 mM EDTA and bound radioactivity determined by liquid scintillation counting.

human ERα = biological target: T2, human ERα (Homo sapiens, UniProt P03372); assay: Competition with [3H]-17β-estradiol for binding to ERα ligand binding domain (E. coli lysate); conditions: 2 nM [3H]-17β-estradiol, 5-15 hours at room temperature; concentration that decreases total 17β-estradiol binding by 50%
T2 construct: made in house; host or cells: E. coli
T2 sequence (P03372 311-547 limits assumed): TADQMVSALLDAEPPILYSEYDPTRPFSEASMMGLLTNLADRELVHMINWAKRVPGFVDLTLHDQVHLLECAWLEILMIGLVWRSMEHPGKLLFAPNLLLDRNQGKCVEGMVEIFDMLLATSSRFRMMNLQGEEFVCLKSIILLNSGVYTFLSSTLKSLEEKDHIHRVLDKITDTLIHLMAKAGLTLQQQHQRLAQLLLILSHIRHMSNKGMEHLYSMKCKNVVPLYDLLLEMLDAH
Method: as §1

With `ON=Cc1cc(-c2ccc(O)cc2)cc2ccoc12` [Example 37, 5-(4-Hydroxyphenyl)-1-benzofuran-7-carbaldehyde oxime] the IC50 (human ERβ) was 0.326 µM and the IC50 (human ERα) was 3.22 µM.

`ON=Cc1ccc(-c2ccc(O)cc2)c2ccsc12` [Example 12, 4-(4-Hydroxyphenyl)-1-benzothiophene-7-carbaldehyde oxime] showed a melting point of 229.5 to 230.5 °C.

With `ON=Cc1cc(-c2ccc(O)cc2)c2occc2c1` [Example 43, 7-(4-Hydroxyphenyl)-benzofuran-5-carbaldehyde oxime] the IC50 (human ERβ) was 2.21 µM, the IC50 (human ERα) was greater than 5 µM and the melting point was 192 to 194 °C.

With `ON=Cc1ccc(-c2ccc(O)cc2)c2sccc12` [Example 19, 7-(4-Hydroxyphenyl)-1-benzothiophene-4-carbaldehyde oxime] the melting point was 230 to 231 °C.

`ON=Cc1ccc(-c2ccc(O)cc2)c2ccccc12` [Example 3, 4-(4-Hydroxyphenyl)-1-naphthaldehyde oxime] showed a melting point of 200 to 200.5 °C.

`ON=Cc1ccc(-c2ccc(O)cc2)c2ccoc12` [Example 31, 4-(4-Hydroxyphenyl)-benzofuran-7-carbaldehyde oxime] showed a melting point of 219 to 220 °C.

With `ON=Cc1ccc(-c2ccc(O)c(F)c2)c2ccccc12` [Example 6, 4-(3-Fluoro-4-hydroxyphenyl)-naphthalene-1-carbaldehyde oxime] the melting point was 187 to 188 °C.

Work on `ON=Cc1ccc(-c2ccc(O)cc2)c2occc12` [Example 25, 7-(4-Hydroxyphenyl)-1-benzofuran-4-carbaldehyde oxime] yielded a melting point of 216 to 217 °C.
